Source: the supplement of paper PMC10331698
± gives the standard deviation of the averaged measurements.

Tests used:
Assay in all cases: level (log10 ratio to DMSO vehicle control); higher = higher biomarker level / cell amount than vehicle control
Conditions in all cases: in DMSO
[1] = compound: NC(=O)C(F)(F)C(F)(F)C(F)(F)C(F)F
Experimental: (§1)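 BioMAP Diversity Plus panel of 12 human primary cell co-culture systems (3C, 4H, LPS, SAg, BT, BF4T, BE3C, CASM3C, HDF3CGF, KF3CT, MyoF, Mphg). Compounds were added 1 h before stimulation and left for 24 h (MyoF 48 h; BT 72 h for soluble read-outs or 6 d for IgG). Biomarkers were read by ELISA, cytotoxicity by SRB, PBMC viability and proliferation by Alamar Blue. Each well value was divided by the mean of 8 DMSO control wells on the same plate and log10 transformed; duplicate blinded samples were tested at 4 concentrations.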

[2] = compound: NC(=O)C(F)(F)C(F)(F)C(F)(F)C(F)(F)C(N)=O [Octafluoroadipamide]
Experimental: as §1

[3] = compound: FC(F)(F)C(F)(F)C(F)(F)CI [Heptafluorobutyl iodide]
Experimental: as §1

[4] = compound: OCC(F)(F)C(F)(F)C(F)(F)CO [Hexafluoroamylene glycol]
Experimental: as §1

[5] = compound: O=S(=O)(O)CCC(F)(F)C(F)(F)C(F)(F)C(F)(F)C(F)(F)C(F)(F)F [6:2 Fluorotelomer sulfonic acid]
Experimental: as §1

[6] = compound: NC(=O)C(F)(F)C(F)(F)C(F)(F)C(F)(F)F [Nonafluoropentanamide]
Experimental: as §1

[7] = compound: O=C(O)C(F)(F)C(F)(F)C(F)(F)C(F)(F)C(F)(F)C(F)(F)C(F)(F)C(F)(F)C(F)(F)C(F)F [11-H-Perfluoroundecanoic acid]
Experimental: as §1

Row | Test System | level (log10) ([1]; 6700 nM) | level (log10) ([1]; 20000 nM) | level (log10) ([1]; 60000 nM) | level (log10) ([2]; 6700 nM) | level (log10) ([2]; 20000 nM) | level (log10) ([2]; 60000 nM) | level (log10) ([3]; 6700 nM) | level (log10) ([3]; 20000 nM) | level (log10) ([3]; 60000 nM) | level (log10) ([4]; 6700 nM) | level (log10) ([4]; 20000 nM) | level (log10) ([4]; 60000 nM) | level (log10) ([5]; 6700 nM) | level (log10) ([5]; 20000 nM) | level (log10) ([5]; 60000 nM) | level (log10) ([6]; 6700 nM) | level (log10) ([6]; 20000 nM) | level (log10) ([6]; 60000 nM) | level (log10) ([7]; 6700 nM) | level (log10) ([7]; 20000 nM)
1 | LPS:CD40 | -0.0125 ± 0.029 | -0.0045 ± 0.018 | -0.03 ± 0.017 | -0.044 ± 0.016 | -0.022 ± 0.035 | 0 ± 0.0028 | -0.045 ± 0.018 | -0.0035 ± 0.013 | 0.001 ± 0.0057 | 0.035 ± 0.024 | 0.0385 ± 0.04 | 0.028 ± 0.04 | 0.025 ± 0.048 | 0.0165 ± 0.037 | -0.015 ± 0.024 | 0.002 ± 0.038 | -0.008 ± 0.068 | 0.0015 ± 0.035 | -0.0115 ± 0.015 | -0.0505 ± 0.03
2 | BF4T:IL-1alpha | -0.0175 ± 0.021 | -0.004 ± 0.0028 | -0.002 ± 0.0057 | 0.007 ± 0.0071 | -0.005 ± 0.0071 | 0.0215 ± 0.018 | -0.017 ± 0.016 | -0.0125 ± 0.0035 | -0.015 ± 0.05 | -0.001 ± 0.014 | -0.0175 ± 0.0035 | 0.0075 ± 0.029 | 0.006 ± 0.0085 | 0.0005 ± 0.0092 | 0.023 ± 0.018 | -0.017 ± 0.0042 | -0.0035 ± 0.028 | -0.003 ± 0.0014 | 0.025 ± 0.027 | -0.0955 ± 0.026
3 | BT:sTNF-alpha | 0.0475 ± 0.19 | -0.0695 ± 0.0035 | -0.0215 ± 0.047 | 0.058 ± 0.23 | 0.116 ± 0.098 | 0.194 ± 0.077 | -0.035 ± 0.22 | 0.149 ± 0.096 | 0.0905 ± 0.069 | 0.0165 ± 0.037 | 0.0085 ± 0.022 | 0.0215 ± 0.064 | -0.011 ± 0.031 | 0.0335 ± 0.07 | -0.021 ± 0.04 | 0.089 ± 0.086 | 0.031 ± 0.069 | 0.0565 ± 0.04 | 0.016 ± 0.059 | -0.051 ± 0.024
4 | BF4T:CCL2/MCP-1 | 0.008 ± 0.0042 | -0.0135 ± 0.0092 | 0.0165 ± 0.047 | 0.003 ± 0.011 | -0.0025 ± 0.0064 | -0.02 ± 0.031 | 0.0025 ± 0.028 | 0.068 ± 0.11 | 0.046 ± 0.023 | 0.013 ± 0.013 | 0.0145 ± 0.016 | 0.039 ± 0.045 | 0.0035 ± 0.0064 | -0.024 ± 0.028 | -0.0335 ± 0.069 | 0.001 ± 0.013 | -0.0615 ± 0.023 | -0.105 ± 0.03 | -0.162 ± 0.02 | -0.2635 ± 0.0021
5 | BF4T:CXCL8/IL-8 | 0 ± 0.0071 | -0.0105 ± 0.005 | -0.009 ± 0.0071 | -0.0185 ± 0.0064 | -0.022 ± 0.011 | -0.003 ± 0.044 | 0.0085 ± 0.029 | 0.061 ± 0.11 | 0.0505 ± 0.063 | -0.018 | -0.002 ± 0.0014 | 0.0175 ± 0.033 | 0.069 ± 0.058 | 0.0625 ± 0.044 | 0.0805 ± 0.057 | 0.055 ± 0.021 | 0.028 ± 0.057 | 0.0235 ± 0.088 | 0.0575 ± 0.019 | 0.0005 ± 0.026
6 | BT:Secreted IgG | 0.0115 ± 0.073 | 0.026 ± 0.0085 | -0.0005 ± 0.026 | 0.0345 ± 0.018 | 0.037 ± 0.0028 | 0.0215 ± 0.0078 | 0.038 ± 0.02 | 0.0585 ± 0.018 | 0.0375 ± 0.028 | 0.022 ± 0.048 | 0.0275 ± 0.037 | 0.023 ± 0.017 | 0.0005 ± 0.054 | -0.048 ± 0.031 | -0.081 ± 0.048 | -0.001 ± 0.0014 | -0.006 ± 0.0099 | -0.005 ± 0.014 | 0.007 ± 0.021 | 0.0175 ± 0.0092
7 | BT:PBMC Cytotoxicity | -0.001 ± 0.0042 | -0.0015 ± 0.0035 | 0.016 | 0.0125 ± 0.0021 | 0.018 ± 0.011 | 0.005 ± 0.051 | 0.0515 ± 0.029 | 0.01 ± 0.0028 | 0.0125 ± 0.032 | 0.008 ± 0.024 | 0.008 ± 0.0057 | -0.005 ± 0.0099 | 0.007 | 0.0235 ± 0.0064 | 0.045 ± 0.0014 | 0.024 ± 0.0042 | 0.02 ± 0.0028 | 0.0155 ± 0.011 | 0.0055 ± 0.0035 | 0.0375 ± 0.0064
8 | BF4T:MMP-9 | 0.013 ± 0.051 | -0.006 ± 0.055 | -0.001 ± 0.047 | -0.0245 ± 0.005 | -0.016 ± 0.016 | 0.0115 ± 0.046 | -0.008 ± 0.0085 | -0.018 ± 0.013 | 0.0025 ± 0.03 | -0.0045 ± 0.011 | -0.0165 ± 0.0035 | 0.0105 ± 0.035 | -0.0015 ± 0.036 | -0.0095 ± 0.0078 | 0.018 ± 0.024 | -0.026 ± 0.068 | -0.051 ± 0.016 | 0.004 ± 0.017 | -0.042 ± 0.047 | -0.154 ± 0.021
9 | LPS:CD106/VCAM-1 | -0.0055 ± 0.025 | -0.023 ± 0.041 | -0.015 ± 0.025 | -0.022 ± 0.047 | -0.0065 ± 0.0092 | 0.008 ± 0.021 | -0.0355 ± 0.0092 | -0.001 ± 0.018 | -0.0485 ± 0.054 | -0.0215 ± 0.054 | -0.03 ± 0.064 | -0.0055 ± 0.059 | -0.0055 ± 0.067 | -0.0005 ± 0.074 | 0.0115 ± 0.042 | -0.0075 ± 0.028 | -0.0135 ± 0.005 | 0.0035 ± 0.011 | 0.0025 ± 0.019 | -0.002 ± 0.02
10 | BF4T:CD106/VCAM-1 | -0.015 ± 0.0028 | -0.014 ± 0.0042 | -0.003 ± 0.023 | -0.0265 ± 0.021 | -0.0215 ± 0.016 | 0.0155 ± 0.061 | -0.016 ± 0.0057 | -0.021 ± 0.0042 | 0.017 ± 0.045 | -0.0015 ± 0.023 | 0.0045 ± 0.023 | 0.034 ± 0.025 | -0.0125 ± 0.04 | -0.0315 ± 0.0035 | -0.022 ± 0.057 | -0.015 ± 0.059 | -0.0485 ± 0.03 | -0.014 ± 0.017 | -0.062 ± 0.0057 | -0.148 ± 0.079
11 | SAg:CXCL9/MIG | -0.0015 ± 0.0021 | -0.0055 ± 0.005 | 0.0105 ± 0.0021 | 0 | -0.0045 ± 0.0064 | -0.0005 ± 0.013 | -0.007 ± 0.0028 | -0.0025 ± 0.0021 | -0.0085 ± 0.0092 | -0.0015 ± 0.011 | -0.016 ± 0.016 | -0.003 ± 0.0071 | -0.002 ± 0.018 | -0.0035 ± 0.015 | -0.0045 ± 0.012 | 0.003 ± 0.014 | -0.0035 ± 0.013 | 0.0185 ± 0.015 | -0.005 ± 0.011 | -0.011
12 | BF4T:CD90 | -0.002 ± 0.0085 | -0.0125 ± 0.0092 | 0.001 ± 0.0028 | -0.0155 ± 0.0078 | -0.0145 ± 0.0021 | -0.0125 ± 0.021 | 0.003 ± 0.018 | -0.009 ± 0.0028 | 0.001 ± 0.017 | -0.012 ± 0.0028 | -0.017 | -0.004 ± 0.011 | -0.029 ± 0.017 | -0.028 ± 0.0085 | -0.031 ± 0.0042 | -0.0145 ± 0.015 | -0.0075 ± 0.0021 | -0.013 ± 0.0042 | -0.0485 ± 0.028 | -0.0995 ± 0.029
13 | BF4T:CCL26/Eotaxin-3 | -0.001 ± 0.0085 | -0.012 ± 0.033 | 0.0005 ± 0.018 | -0.0045 ± 0.046 | 0.0065 ± 0.052 | 0.0075 ± 0.029 | -0.0245 ± 0.005 | 0.002 ± 0.023 | 0.048 ± 0.023 | 0.003 ± 0.051 | 0.002 ± 0.0071 | 0.0395 ± 0.042 | 0.001 ± 0.018 | -0.0535 ± 0.011 | -0.08 ± 0.078 | -0.006 ± 0.0071 | -0.055 ± 0.0042 | -0.0525 ± 0.0092 | -0.122 ± 0.014 | -0.234 ± 0.018
14 | BE3C:EGFR | 0.0055 ± 0.019 | 0.0065 ± 0.032 | -0.008 ± 0.0099 | -0.019 ± 0.016 | -0.014 ± 0.0099 | 0.004 ± 0.04 | -0.015 ± 0.017 | -0.019 ± 0.0071 | 0.0015 ± 0.005 | 0.0035 ± 0.005 | -0.0115 ± 0.0078 | 0.009 ± 0.0071 | -0.0075 ± 0.00071 | -0.027 ± 0.0085 | -0.0095 ± 0.0064 | 0.0025 ± 0.011 | -0.0425 ± 0.029 | -0.0175 ± 0.011 | -0.0125 ± 0.021 | -0.12 ± 0.0057
